System: CD4+ T cells
Test: Neutralizing activity assay: cytokine production by PMA/ionomycin-stimulated CD4+ T cells in contact with mycolactone
Assay type: cell-based, C57Bl/6 mice
Conditions: mycolactone 4 ng/mL, 6 h, compared to positive control (T cells only stimulated)
Procedure: FIG. 2: Neutralization of mycolactone by cutaneous immunoglobulin from FVB/N mice infected with M. ulcerans. CD4+ lymphocytes were stimulated with PMA/ionomycin. Mycolactone was used at a concentration of 4 ng/mL. Immunoglobulins purified from the skin of A) FVB/N mice or B) C57Bl/6 mice infected with M. ulcerans were used at a ratio of 10 immunoglobulin molecules per molecule of mycolactone. Left panel: IL-2 quantification, Right panel: IFNγ quantification. The data shown correspond to one experiment performed in triplicate (mean±SD).
CD4+ T cells were isolated from the spleens of C57Bl/6 mice by magnetic sorting (MACS technology kit 130-104-454), according to the manufacturer's instructions (Miltenyi Biotec). The purity of CD4+ T-cell preparations was determined by flow cytometry, with PE-conjugated anti-CD4 monoclonal antibody (eBioscience) and FITC-conjugated anti-CD3E monoclonal antibody (eBioscience). […] IL-2 and IFN-γ were quantified by ELISA (eBioscience), according to the manufacturer's instructions (Mouse IL-2 Ready-SET-Go: 88-7024 and Mouse IFN-γ Ready-SET-Go: 88-7314 respectively).
In this context, we assessed whether these antibodies could not only recognized but also neutralized mycolactone, by evaluating cytokines production by T lymphocytes as an indicator of the immunomodulatory property of mycolactone. […]

In the case of `CC(=C\C=C\C(C)=C\[C@H](O)[C@@H](O)C[C@H](C)O)/C=C(C)/C=C/C(=O)O[C@H]1CCCC(=O)O[C@@H]([C@@H](C)C/C(C)=C/[C@@H](C)[C@H](O)C[C@@H](C)O)C/C=C(\C)C[C@@H]1C` [mycolactone, [(6S,7S,9E,12R)-12-[(E,2S,6R,7R,9R)-7,9-dihydroxy-4,6-dimethyldec-4-en-2-yl]-7,9-dimethyl-2-oxo-1-oxacyclododec-9-en-6-yl] (2E,4E,6E,8E,10E,12S,13S,15S)-12,13,15-trihydroxy-4,6,10-trimethylhexadeca-2,4,6,8,10-pentaenoate], the “IFNγ production by T cells” value is reported as “greatly decreased” and the “IL-2 production by T cells” value is reported as “greatly decreased”.

From US20220381779A1, “METHODS FOR THE DIAGNOSIS OF BURULI ULCER” (INSERM (INSTITUT NATIONAL DE LA SANTÉ ET DE LA RECHERCHE …, priority 2019, published 2022)
